Test results published in ChEMBL document CHEMBL1201862, “PubChem BioAssay data set” (2004).
The source made the active and inactive calls.

Columns and labels:
Cytochrome P450 2C19 [1] = biological target: T1, Cytochrome P450 2C19 (Homo sapiens, UniProt P33261); experiment: qHTS Assay for Inhibitors and Substrates of Cytochrome P450 2C19. [Related pubchem assays: 410 ]; type: ADME; conditions: read-out: Potency
Cytochrome P450 2D6 = Cytochrome P450 2D6 (Homo sapiens, UniProt P10635); experiment: qHTS Assay for Inhibitors and Substrates of Cytochrome P450 2D6. [Related pubchem assays: 410 ]; type: ADME; conditions: read-out: Potency
Sequence of Cytochrome P450 2D6 (P10635 whole entry, the tested form may be a part): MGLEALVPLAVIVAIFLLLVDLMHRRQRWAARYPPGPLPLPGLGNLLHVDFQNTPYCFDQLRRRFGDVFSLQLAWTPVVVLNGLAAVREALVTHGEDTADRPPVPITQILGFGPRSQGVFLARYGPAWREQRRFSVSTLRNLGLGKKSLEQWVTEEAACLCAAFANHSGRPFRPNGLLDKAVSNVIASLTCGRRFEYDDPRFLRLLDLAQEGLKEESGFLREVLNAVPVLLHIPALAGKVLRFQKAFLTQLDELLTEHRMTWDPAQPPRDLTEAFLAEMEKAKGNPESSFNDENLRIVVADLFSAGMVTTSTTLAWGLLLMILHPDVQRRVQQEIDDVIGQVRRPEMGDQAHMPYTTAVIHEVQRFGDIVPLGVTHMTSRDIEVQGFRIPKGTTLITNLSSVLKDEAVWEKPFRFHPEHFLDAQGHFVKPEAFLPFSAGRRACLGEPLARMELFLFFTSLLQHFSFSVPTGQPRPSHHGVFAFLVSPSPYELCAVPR

[2] = biological target: T2, RNA-binding protein pos-1 (Caenorhabditis elegans, UniProt G5EF15); experiment: inhibitors of POS-1/mex-3 RNA binding, dose response, biochemical, fluorescence polarization (AID 1964);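 also: purified POS-1 fused to maltose binding protein made in E. coli; potency of compounds blocking POS-1 binding to fluorescent RNA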
T2 sequence (G5EF15 whole entry): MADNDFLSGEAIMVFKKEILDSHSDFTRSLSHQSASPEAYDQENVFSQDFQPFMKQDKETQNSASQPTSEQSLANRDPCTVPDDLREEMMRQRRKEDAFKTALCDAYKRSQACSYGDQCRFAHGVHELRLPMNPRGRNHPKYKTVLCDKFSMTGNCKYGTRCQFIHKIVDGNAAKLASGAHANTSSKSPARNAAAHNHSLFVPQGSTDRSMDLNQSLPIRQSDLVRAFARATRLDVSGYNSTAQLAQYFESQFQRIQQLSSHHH

[3] = Counterscreen for IDE inhibitors: Luminescence-based cell-based high throughput dose response assay to identify compounds that are cytotoxic to HEK cells. [Related pubchem assays: 434962 (Primary screen (IDE inhibitors in singlicate)), 449730 (Counterscreen (Cytotoxicity in triplicate)), 435028 (Confirmation (IDE inhibitors in triplicate)) …; type: functional; conditions: HEK293
[4] = biological target: T3, Zinc finger protein mex-5 (Caenorhabditis elegans, UniProt Q9XUB2); experiment: MEX-5/TCR-2 RNA interaction inhibitors, dose response, biochemical, C. elegans, fluorescence polarization (AID 1960)
T3 sequence (Q9XUB2 whole entry): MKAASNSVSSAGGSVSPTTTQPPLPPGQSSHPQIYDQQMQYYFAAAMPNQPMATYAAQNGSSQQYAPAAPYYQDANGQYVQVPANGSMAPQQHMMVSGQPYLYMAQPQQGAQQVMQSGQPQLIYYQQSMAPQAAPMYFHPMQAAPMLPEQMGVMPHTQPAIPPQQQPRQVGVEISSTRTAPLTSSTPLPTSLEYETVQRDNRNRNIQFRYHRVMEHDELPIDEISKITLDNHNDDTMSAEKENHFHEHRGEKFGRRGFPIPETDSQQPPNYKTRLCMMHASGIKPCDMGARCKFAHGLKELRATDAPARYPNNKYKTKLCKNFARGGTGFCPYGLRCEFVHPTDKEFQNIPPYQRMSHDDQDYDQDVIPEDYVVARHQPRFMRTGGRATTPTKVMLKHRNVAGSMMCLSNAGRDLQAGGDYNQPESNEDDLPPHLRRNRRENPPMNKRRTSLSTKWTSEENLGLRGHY

Insulin-degrading enzyme = biological target: T4, Insulin-degrading enzyme (Homo sapiens, UniProt P14735); experiment: Dose Response: Fluorescence polarization-based cell-based high throughput dose response assay for inhibitors of insulin-degrading enzyme (IDE). [Related pubchem assays: 434962 (Primary screen (IDE inhibitors in singlicate)), 449730 (Counterscreen (Cytotoxicity in triplicate)), 435028 (Confirmation (IDE inhibitors in triplicate)), 434984 (Summary …; type: functional
T4 sequence (P14735 whole entry): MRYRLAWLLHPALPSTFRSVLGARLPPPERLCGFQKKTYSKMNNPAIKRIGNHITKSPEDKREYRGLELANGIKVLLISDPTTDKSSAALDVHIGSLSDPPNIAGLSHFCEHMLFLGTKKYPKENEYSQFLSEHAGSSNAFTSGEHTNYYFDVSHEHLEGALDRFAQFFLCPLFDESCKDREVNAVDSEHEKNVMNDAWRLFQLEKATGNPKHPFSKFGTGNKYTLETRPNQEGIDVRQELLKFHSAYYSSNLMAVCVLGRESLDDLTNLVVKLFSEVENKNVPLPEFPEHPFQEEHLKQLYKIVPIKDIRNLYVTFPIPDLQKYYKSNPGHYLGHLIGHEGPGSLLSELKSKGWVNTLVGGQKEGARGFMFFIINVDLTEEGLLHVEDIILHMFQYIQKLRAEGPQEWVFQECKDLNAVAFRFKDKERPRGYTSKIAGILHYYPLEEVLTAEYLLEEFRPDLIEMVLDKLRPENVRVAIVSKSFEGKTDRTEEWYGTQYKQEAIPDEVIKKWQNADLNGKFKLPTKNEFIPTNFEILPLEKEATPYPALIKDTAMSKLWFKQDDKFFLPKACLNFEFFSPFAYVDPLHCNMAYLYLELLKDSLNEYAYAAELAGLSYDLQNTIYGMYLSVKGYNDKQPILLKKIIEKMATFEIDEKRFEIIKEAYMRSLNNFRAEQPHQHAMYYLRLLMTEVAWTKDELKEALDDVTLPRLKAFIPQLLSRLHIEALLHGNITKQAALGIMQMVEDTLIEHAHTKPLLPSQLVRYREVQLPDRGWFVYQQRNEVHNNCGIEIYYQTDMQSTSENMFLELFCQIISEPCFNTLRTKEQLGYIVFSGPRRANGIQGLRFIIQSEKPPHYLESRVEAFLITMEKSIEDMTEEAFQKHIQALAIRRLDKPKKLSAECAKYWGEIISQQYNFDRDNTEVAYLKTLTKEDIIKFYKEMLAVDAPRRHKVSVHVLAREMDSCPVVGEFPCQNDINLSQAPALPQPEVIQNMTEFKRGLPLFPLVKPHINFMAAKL

[5] = biological target: 26S proteasome non-ATPase regulatory subunit 14 (Homo sapiens, UniProt O00487); experiment: inhibition of proteasome subunit RPN11 – biochemical, fluorescence polarization, uHTS hits, confirmation (AID 602368); type: functional
Sequence of 26S proteasome non-ATPase regulatory subunit 14 (O00487 whole entry): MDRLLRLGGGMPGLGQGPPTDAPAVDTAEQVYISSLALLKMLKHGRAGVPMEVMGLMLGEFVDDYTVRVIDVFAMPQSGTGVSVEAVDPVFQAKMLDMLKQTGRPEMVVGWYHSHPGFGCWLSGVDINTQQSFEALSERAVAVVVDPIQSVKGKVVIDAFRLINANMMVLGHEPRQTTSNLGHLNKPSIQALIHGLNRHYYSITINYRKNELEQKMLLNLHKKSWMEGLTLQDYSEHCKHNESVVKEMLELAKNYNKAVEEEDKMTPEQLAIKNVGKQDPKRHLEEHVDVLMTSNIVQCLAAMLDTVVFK

[6] = biological target: 72 kDa type IV collagenase (Homo sapiens, UniProt P08253); experiment: Dose Response validation of uHTS RPN11 inhibitor hits using a MMP-2 Fluorescence assay.; type: functional
Sequence of 72 kDa type IV collagenase (P08253 whole entry): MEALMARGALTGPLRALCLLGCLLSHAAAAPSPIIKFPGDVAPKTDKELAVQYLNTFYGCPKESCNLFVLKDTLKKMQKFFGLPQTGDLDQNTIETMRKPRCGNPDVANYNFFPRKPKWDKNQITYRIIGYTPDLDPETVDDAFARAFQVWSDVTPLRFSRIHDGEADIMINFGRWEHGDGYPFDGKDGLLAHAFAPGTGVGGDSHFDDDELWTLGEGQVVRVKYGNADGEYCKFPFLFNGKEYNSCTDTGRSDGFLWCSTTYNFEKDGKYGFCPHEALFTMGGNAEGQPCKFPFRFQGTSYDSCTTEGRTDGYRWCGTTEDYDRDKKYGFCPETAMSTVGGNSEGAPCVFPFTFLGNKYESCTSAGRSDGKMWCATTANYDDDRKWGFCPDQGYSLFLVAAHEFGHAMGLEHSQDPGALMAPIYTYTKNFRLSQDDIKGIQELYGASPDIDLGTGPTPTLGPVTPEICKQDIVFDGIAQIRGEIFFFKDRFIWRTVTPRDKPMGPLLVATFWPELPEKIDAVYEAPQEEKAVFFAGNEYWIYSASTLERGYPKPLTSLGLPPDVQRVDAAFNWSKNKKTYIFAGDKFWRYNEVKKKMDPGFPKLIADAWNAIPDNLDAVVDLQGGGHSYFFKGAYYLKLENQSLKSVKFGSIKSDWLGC

Prothrombin = Prothrombin (Bos taurus, UniProt P00735); experiment: thrombin inhibition, dose response, biochemical, fluorescence polarization, uHTS hits (AID 602369); type: functional
[7] = biological target: Lysosomal acid glucosylceramidase (Homo sapiens, UniProt P04062); experiment: Dose response cell-based high throughput screening assay to identify enhancers of beta-glucosidase activity. [Related pubchem assays: 784 ]; type: functional
Sequence of Lysosomal acid glucosylceramidase (P04062 whole entry): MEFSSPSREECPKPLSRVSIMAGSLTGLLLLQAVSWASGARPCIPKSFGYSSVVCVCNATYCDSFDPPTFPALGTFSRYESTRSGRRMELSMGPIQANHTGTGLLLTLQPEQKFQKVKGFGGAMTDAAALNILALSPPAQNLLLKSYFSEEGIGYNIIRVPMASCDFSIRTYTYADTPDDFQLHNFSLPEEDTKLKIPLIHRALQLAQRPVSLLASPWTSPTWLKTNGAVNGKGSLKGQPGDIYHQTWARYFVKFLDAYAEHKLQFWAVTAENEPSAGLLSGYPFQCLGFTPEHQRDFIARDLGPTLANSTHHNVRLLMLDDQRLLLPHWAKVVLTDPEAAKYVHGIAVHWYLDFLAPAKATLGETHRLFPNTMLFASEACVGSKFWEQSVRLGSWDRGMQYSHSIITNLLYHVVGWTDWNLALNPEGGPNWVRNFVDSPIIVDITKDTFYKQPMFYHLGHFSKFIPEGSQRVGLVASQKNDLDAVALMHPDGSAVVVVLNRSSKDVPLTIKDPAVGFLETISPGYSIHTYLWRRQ

Cytochrome P450 2C19 [8] = biological target: T1, Cytochrome P450 2C19; experiment: Cytochrome panel assay with activity outcomes. Panel member name: p450-cyp2c19 Compounds with AC50 equal or less than 10 uM are considered active; type: functional
Cytochrome P450 2C9 = Cytochrome P450 2C9 (Homo sapiens, UniProt P11712)
Sequence of Cytochrome P450 2C9 (P11712 whole entry): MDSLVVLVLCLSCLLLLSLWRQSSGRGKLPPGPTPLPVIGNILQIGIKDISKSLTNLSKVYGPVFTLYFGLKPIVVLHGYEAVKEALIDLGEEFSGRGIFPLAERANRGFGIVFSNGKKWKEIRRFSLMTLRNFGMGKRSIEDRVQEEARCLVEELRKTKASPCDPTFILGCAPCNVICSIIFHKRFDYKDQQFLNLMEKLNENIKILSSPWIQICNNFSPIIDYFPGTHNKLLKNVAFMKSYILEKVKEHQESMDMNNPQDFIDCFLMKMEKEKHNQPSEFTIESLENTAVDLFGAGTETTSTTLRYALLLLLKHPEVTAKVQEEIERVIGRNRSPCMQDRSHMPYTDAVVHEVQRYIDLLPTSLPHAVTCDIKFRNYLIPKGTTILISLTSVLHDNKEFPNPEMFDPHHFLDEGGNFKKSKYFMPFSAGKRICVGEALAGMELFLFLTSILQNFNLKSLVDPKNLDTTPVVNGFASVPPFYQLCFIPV

[9] = system: Streptococcus sp. 'group A'; experiment: growth inhibition of control SK(-) GAS strain, dose response, counter-screen for streptokinase expression inhibitor project, luminescence, kanamycin, BacTiterGlo, confirmation (AID 1900); type: functional, organism-based
Streptokinase A = biological target: T5, Streptokinase A (Streptococcus pyogenes serotype M1, UniProt P10520); experiment: S. pyogenes streptokinase expression inhibitors, potency, dose response, plasminogen activation absorbance, OD405 (AID 1914); type: functional, Streptococcus pyogenes M1 GAS;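 also: secreted streptokinase activity via plasminogen activation per viability signal from cell pellet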
T5 sequence (P10520 whole entry): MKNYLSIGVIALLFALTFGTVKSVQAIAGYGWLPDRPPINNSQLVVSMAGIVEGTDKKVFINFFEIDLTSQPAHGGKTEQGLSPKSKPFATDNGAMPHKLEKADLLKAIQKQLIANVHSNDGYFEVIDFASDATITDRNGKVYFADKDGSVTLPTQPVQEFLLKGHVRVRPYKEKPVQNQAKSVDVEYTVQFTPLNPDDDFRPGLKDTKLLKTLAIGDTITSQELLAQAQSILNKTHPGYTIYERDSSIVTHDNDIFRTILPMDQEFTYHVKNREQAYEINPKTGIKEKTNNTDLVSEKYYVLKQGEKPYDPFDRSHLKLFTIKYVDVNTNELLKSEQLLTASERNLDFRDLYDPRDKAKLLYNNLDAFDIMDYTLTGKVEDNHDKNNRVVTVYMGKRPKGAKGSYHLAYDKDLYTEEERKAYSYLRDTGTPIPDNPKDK

[10] = biological target: Induced myeloid leukemia cell differentiation protein Mcl-1 (Homo sapiens, UniProt Q07820); type: functional
Sequence of Induced myeloid leukemia cell differentiation protein Mcl-1 (Q07820 whole entry): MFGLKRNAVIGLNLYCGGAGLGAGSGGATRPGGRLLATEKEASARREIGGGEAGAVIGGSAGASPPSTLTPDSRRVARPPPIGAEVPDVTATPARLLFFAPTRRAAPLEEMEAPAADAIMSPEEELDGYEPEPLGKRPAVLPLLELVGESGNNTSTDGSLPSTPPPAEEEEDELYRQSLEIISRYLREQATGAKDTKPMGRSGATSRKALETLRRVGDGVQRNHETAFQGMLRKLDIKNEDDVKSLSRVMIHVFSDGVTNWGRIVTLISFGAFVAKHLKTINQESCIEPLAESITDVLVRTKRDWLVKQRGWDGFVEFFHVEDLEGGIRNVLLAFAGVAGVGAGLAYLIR

Streptococcus = experiment: Group A Streptococcus viability loss, dose response, counter-screen for streptokinase expression inhibitor project, luminescence, BacTiterGlo (AID 1915); type: functional, organism-based;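 also: potency for reduction of bacterial viability or growth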
[11] = biological target: Intestinal-type alkaline phosphatase (Homo sapiens, UniProt P09923); experiment: activation of human intestinal alkaline phosphatase – biochemical, dose response (AID 488873); type: functional
Sequence of Intestinal-type alkaline phosphatase (Homo sapiens, UniProt P09923) (P09923 whole entry): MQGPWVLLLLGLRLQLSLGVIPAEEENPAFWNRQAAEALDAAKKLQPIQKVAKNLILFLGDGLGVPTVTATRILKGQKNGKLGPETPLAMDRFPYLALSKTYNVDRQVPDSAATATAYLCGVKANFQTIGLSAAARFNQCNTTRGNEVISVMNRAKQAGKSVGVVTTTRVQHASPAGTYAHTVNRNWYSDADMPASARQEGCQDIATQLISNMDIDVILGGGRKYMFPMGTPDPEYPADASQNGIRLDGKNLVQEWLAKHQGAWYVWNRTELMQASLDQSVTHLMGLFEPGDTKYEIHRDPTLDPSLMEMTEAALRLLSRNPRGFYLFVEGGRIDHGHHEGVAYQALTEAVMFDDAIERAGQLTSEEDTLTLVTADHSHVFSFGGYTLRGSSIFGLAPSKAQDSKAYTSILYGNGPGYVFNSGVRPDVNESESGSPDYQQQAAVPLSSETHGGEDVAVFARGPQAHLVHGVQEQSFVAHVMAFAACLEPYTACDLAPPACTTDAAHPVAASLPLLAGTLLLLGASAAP

[12] = biological target: Intestinal-type alkaline phosphatase (Mus musculus, UniProt P24822); experiment: PubChem AID 488785; type: functional
Sequence of Intestinal-type alkaline phosphatase (Mus musculus, UniProt P24822) (P24822 whole entry): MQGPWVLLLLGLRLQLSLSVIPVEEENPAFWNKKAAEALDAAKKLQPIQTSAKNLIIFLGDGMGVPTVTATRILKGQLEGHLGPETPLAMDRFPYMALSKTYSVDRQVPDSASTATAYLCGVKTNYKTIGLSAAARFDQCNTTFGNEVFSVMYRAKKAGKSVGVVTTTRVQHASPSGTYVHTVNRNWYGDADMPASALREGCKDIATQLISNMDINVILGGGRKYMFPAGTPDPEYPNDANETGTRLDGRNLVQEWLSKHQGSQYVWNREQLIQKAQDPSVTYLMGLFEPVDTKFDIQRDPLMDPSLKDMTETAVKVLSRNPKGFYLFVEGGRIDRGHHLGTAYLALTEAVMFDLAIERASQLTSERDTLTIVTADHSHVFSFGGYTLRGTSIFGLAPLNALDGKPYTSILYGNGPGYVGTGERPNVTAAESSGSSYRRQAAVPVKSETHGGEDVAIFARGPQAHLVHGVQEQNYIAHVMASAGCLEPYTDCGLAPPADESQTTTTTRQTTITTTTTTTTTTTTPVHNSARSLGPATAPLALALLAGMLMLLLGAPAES

[13] = biological target: T6, Alkaline phosphatase, tissue-nonspecific isozyme (Homo sapiens, UniProt P05186); experiment: TNAP enzyme inhibition by screening hits, dose response, selectivity assay for mouse IAP inhibitor project, biochemical, human TNAP, uHTS hits (AID 488906); type: functional
T6 sequence (P05186 whole entry): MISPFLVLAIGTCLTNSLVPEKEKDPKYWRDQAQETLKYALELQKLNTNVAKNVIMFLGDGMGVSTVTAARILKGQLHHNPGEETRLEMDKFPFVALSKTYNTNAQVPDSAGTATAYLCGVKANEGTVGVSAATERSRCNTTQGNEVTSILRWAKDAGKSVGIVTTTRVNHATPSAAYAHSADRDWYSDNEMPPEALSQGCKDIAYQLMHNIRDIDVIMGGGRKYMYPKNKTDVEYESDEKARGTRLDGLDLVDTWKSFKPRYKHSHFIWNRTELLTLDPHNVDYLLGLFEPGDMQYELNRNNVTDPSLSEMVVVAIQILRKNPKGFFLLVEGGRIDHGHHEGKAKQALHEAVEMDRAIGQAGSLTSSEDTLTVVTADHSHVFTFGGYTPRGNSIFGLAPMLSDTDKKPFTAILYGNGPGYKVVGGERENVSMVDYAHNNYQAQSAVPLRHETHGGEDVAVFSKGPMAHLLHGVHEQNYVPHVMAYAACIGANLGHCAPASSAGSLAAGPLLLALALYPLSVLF

Aminopeptidase N = biological target: T7, Aminopeptidase N (Plasmodium falciparum FcB1/Columbia, UniProt O96935); experiment: P. falciparum M1AAP inhibitors, biochemical, fluorogenic H-Leu-NHMec substrate, 1536-well (AID 1445); design: species or system Plasmodium falciparum 3D7, 3D7
T7 sequence (O96935 whole entry): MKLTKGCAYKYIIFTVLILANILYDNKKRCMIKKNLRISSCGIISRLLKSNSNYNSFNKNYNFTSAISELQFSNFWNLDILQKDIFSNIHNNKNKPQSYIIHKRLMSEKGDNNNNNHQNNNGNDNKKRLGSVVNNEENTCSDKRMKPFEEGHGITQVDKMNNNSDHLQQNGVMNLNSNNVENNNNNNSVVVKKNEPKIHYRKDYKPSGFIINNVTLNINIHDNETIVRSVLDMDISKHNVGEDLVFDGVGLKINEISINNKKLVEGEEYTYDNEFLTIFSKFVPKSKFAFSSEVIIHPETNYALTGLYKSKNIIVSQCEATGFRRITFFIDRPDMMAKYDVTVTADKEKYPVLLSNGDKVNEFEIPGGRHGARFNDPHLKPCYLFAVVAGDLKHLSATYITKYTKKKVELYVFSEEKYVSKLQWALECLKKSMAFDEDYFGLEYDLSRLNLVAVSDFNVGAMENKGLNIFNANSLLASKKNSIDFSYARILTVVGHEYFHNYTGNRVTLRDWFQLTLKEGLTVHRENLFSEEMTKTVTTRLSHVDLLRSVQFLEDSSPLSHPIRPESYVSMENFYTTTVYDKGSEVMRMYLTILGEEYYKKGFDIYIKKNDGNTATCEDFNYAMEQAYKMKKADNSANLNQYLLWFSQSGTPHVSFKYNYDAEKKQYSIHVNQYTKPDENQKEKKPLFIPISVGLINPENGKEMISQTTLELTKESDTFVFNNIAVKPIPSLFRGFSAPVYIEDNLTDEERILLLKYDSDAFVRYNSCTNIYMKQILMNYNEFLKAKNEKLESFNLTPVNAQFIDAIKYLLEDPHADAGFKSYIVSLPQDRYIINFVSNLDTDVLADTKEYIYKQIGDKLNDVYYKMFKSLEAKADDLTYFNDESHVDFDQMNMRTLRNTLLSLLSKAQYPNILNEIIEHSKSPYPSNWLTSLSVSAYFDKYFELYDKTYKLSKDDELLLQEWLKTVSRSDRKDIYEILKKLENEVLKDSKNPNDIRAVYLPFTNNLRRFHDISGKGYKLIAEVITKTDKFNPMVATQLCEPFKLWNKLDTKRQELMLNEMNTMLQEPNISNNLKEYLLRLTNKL

T1 sequence (P33261 whole entry): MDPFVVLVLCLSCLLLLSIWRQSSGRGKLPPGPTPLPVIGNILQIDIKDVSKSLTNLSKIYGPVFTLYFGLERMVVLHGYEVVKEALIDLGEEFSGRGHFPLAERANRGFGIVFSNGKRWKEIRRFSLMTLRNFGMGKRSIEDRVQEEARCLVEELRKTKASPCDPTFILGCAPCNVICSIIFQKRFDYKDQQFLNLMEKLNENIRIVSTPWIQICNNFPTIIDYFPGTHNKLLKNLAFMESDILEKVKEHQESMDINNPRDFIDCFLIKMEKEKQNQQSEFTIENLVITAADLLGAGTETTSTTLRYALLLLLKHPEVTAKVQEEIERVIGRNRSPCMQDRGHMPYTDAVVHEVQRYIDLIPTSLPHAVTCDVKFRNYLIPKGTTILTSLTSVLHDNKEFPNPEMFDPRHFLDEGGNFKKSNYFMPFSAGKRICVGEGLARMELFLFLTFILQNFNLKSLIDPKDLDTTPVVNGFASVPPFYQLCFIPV

CCOC(=O)[C@]1(C(NC(=O)OC)c2cccc(F)c2)CCCC1=O (stereo partly specified)
AC50 (Cytochrome P450 2C19 [1]): 3.98 µM (inconclusive)
AC50 (Cytochrome P450 2D6): 3.98 µM (inconclusive)

COc1cc(OC)c(OC)cc1/C=C1\Oc2cc(OS(C)(=O)=O)ccc2C1=O
EC50 [2]: > 300 µM (not active)
IC50 [3]: > 55.7 µM (not active)
EC50 [4]: > 300 µM (not active)
IC50 (Insulin-degrading enzyme): > 55.9 µM (not active)
IC50 [5]: 4.35 µM (active)
IC50 [6]: > 100 µM (inactive)
IC50 (Prothrombin): 0.468 µM (active)

COc1cccc2cc(NC(=O)C3CCCCC3)c(=O)oc12
EC50 [7]: > 50 µM (not active)
AC50 (Cytochrome P450 2C19 [8]): 39.8 µM (inconclusive)
AC50 (Cytochrome P450 2C9): inconclusive

NS(=O)(=O)c1ccc(-c2ccc(/C=C3\SC(=S)N(C4CCS(=O)(=O)C4)C3=O)o2)cc1 (stereo unspecified)
EC50 [9]: 7.36 µM (active)
EC50 (Streptokinase A): > 150 µM (not active)
IC50 [10]: 1.85 µM (active)
EC50 (Streptococcus): 32.2 µM (active)
EC50 [11]: 29.4 µM (active)
IC50 [12]: > 100 µM (inactive)
IC50 [13]: 1.32 µM (active)

CC(=O)Nc1cccc(NC(=O)C2CCCN2C(=O)Nc2ccc(C)cc2)c1 (stereo unspecified)
IC50 (Aminopeptidase N): 61.3 µM (active)
EC50 [7]: > 50 µM (not active)
